The target of data set [1] is T1, rhGAA (Homo sapiens, UniProt P10253).
T1 construct: purchased Genzyme Co, Cambridge, Mass., USA
Kind of data set: Effect of compounds on rhGAA stability at neutral pH (residual α-glucosidase activity). Format: biochemical. Conditions: pH 7.0, 37° C., 0.1-10 mM, up to 48 hrs. How it is done: (§1) The standard activity assay of rhGAA was performed in 200 μl by using 5 μg of enzyme at 37° C. in 100 mM sodium acetate pH 4.0 and 20 mM 4NP-Glc. The reaction was started by adding the enzyme; after suitable incubation time (1-2 min) the reaction was blocked by adding 800 μL of 1 M sodium carbonate pH 10.2. Absorbance was measured at 420 nm at room temperature, the extinction coefficient to calculate enzymatic units was 17.2 mM^−1 cm^−1. One enzymatic unit is defined as the amount of enzyme catalyzing the conversion of 1 μmol substrate into product in 1 min, under the indicated conditions.
(§2) The effect of different pHs on the rhGAA stability was measured by preparing reaction mixtures containing 0.75 mg mL^−1 of enzyme in the presence of 50 mM citrate/phosphate (pH 3.0-7.0) at a certain pH. After incubations at 37° C., aliquots were withdrawn at the times indicated and the residual α-glucosidase activity was measured with the standard assay. To test the effect on the pH stability of rhGAA of chemical chaperons and of the other molecules, experiments were performed as described above by adding to the reaction mixtures the amounts of the different compounds indicated in the text.

Data set [2] has as its target T2, rh-alpha-Gal A in Fabry disease cell lines (Homo sapiens, UniProt P06280).
T2 construct: purchased Genzyme Co, Cambridge, Mass., USA
T2 sequence (P06280 32-429): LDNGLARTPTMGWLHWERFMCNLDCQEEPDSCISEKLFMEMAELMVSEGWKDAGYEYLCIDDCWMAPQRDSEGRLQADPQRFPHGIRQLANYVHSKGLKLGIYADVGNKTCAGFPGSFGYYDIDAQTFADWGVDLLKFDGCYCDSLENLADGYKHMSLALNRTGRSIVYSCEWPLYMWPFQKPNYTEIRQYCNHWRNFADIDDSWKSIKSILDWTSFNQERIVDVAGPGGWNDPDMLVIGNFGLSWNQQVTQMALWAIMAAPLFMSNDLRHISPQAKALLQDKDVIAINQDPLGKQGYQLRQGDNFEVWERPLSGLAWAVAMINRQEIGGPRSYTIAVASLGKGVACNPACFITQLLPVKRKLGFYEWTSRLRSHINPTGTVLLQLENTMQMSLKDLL
Nature of the data set: Correction by rh-alpha-Gal A in Fabry disease cell lines with chaperone. Format: cell-based. Conditions: three Fabry disease cell lines. As for the experimental part:
Fibroblasts from PD and Fabry disease patients were derived from skin biopsies after obtaining the informed consent of patients. Normal age-matched control fibroblasts were available in the laboratory of the Department of Pediatrics, Federico II University of Naples. All cell lines were grown at 37° C. with 5% CO2 in Dulbecco's modified Eagle's medium (Invitrogen, Grand Island, N.Y.) and 10% fetal bovine serum (Sigma-Aldrich, St Louis, Mo.), supplemented with 100 U/ml penicillin and […] streptomycin.

For data set [3], the target named is T1, rhGAA. Kind of data set: Thermal stability scans of rhGAA (SYPRO Orange). To be noted: pH 7.4; for Tm of rhGAA in the presence of chaperone: NAC 10 mM, DNJ 0.1 mM. It counts as binding. As for the experimental part: Thermal stability scans of rhGAA were performed as described in [Flanagan et al. 2009]. Briefly, 2.5 μg of enzyme were incubated in the absence and in the presence of NAC and DNJ, 10 mM and 0.1 mM, respectively, SYPRO Orange dye, and sodium phosphate 25 mM buffer, 150 mM NaCl, pH 7.4 or sodium acetate 25 mM buffer, 150 mM NaCl, pH 5.2. Thermal stability scans were performed at 1° C./min in the range 25-95° C. in a Real Time LightCycler (Bio-Rad). SYPRO Orange fluorescence was normalized to maximum fluorescence value within each scan to obtain relative fluorescence. Melting temperatures were calculated according to (Niesen et al. 2007).

Data set [4] deals with T1, rhGAA. Nature of the data set: Effect on rhGAA enzyme activity (standard activity assay). Format: biochemical. To be noted: three concentrations (FIG. 4). As for the experimental part: as §1
The target of the next data set is T3, rhGAA in PD fibroblasts (Homo sapiens, UniProt P10253).
T3 construct: purchased Genzyme Co, Cambridge, Mass., USA
Nature of the data set: Correction of GAA activity by rhGAA in PD fibroblasts with chaperone (synergy). Format: cell-based. To be noted: patient 3 (FIG. 7). How it is done: To study the rhGAA uptake and correction of GAA activity in PD fibroblasts, the cells were incubated with […] rhGAA for 24 hours, in the absence or in the presence of 10 mM NAC. Untreated cells or were used for comparison. After the incubation the cells were harvested by trypsinization and disrupted by 5 cycles of freezing and thawing.
GAA activity was assayed by using the fluorogenic substrate 4-methylumbelliferyl-alpha-D-glucopyranoside (Sigma-Aldrich) according to a published procedure [Porto et al, 2009]. Briefly, 25 micrograms of protein were incubated with the fluorogenic substrate (2 mM) in 0.2 M acetate buffer, pH 4.0, for 60 minutes in incubation mixtures of 100 μl. The reaction was stopped by adding 700 μl of glycine-carbonate buffer, pH 10.7. Fluorescence was read at 365 nm (excitation) and 450 nm (emission) on a Turner Biosystems Modulus fluorometer. Protein concentration in cell homogenates was measured by the Bradford assay (Biorad, Hercules, Calif.).
To study GAA immunoreactive material, fibroblast extracts were subjected to western blot analysis. The cells were harvested, washed in phosphate-buffered saline, resuspended in water, and disrupted by five cycles of freeze-thawing. Equal amounts (20 μg protein) of fibroblast extracts were subjected to sodium dodecyl sulfate polyacrylamide gel electrophoresis and proteins were transferred to PVD membrane (Millipore, Billerica, Mass.). An anti-human GAA antiserum was used as primary antibody to detect GAA polypeptides; to detect β-actin, a monoclonal mouse antibody was used Immunoreactive proteins were detected by chemiluminescence (ECL, Amersham, Freiburg, Germany)
To study the distribution of AlexaFluor546 labeleld GAA, PD fibroblasts grown on coverslips were fixed using methanol, permeabilized using 0.1% saponin and locked with 0.01% saponin, 1% fetal bovine serum diluted in phosphate-buffered saline for 1 hour. The cells were incubated with the primary antibodies, with secondary antibodies in blocking solution and then mounted with vectashield mounting medium (Vector Laboratories, Burlingame, Calif.). Samples were examined with a Zeiss LSM 5 10 laser scanning confocal microscope. Authors used Argon/2 (458, 477, 488, and 514 nanometers) and HeNe1 (543 nanometers) excitation lasers, which were switched-on separately to reduce crosstalk of the two fluorochromes. The green and the red emissions were separated by a dichroic splitter (FT 560) and filtered (515-540-nm bandpass filter for green and >610-nm long pass filter for red emission). A threshold was applied to the images to exclude ˜99% of the signal found in control images.

Data set [5] can be described thus: Effect of pH on rhGAA stability. Format: physicochemical. How it is done: as §1, §2

This note sets out measurements from patent US20150147309A1, “ALLOSTERIC CHAPERONES AND USES THEREOF” (Fondazione Telethon, priority 2012, published 2015).

Regarding `OCCS` [2-mercapto-ethanol, reference compound], the “stabilization of rhGAA at neutral pH” value at rhGAA [1] is given as “did not prevent enzyme inactivation”.

Regarding `N[C@@H](CS)C(=O)O` [Cys, reference compound], the “stabilization of rhGAA at neutral pH” value at rhGAA [1] is reported as “did not prevent enzyme inactivation”.

In the case of `OC[C@H]1NC[C@H](O)[C@@H](O)[C@H]1O` [DGJ, 1-deoxy-galactonojiirimycin, reference compound], the “enhancement of correction by rh-alpha-Gal A” value in data set [2] is given as “largely enhanced”.

With `OC[C@H]1NC[C@H](O)[C@@H](O)[C@@H]1O` [DNJ, 1-deoxy-nojiirimycin, reference compound], the “Tm of rhGAA in the presence of chaperone” value at rhGAA [3] came out at 65.9±0.3 °C.

With `NCC(=O)O` [Gly, reference compound], the “stabilization of rhGAA at neutral pH” value at rhGAA [1] is “did not prevent enzyme inactivation”.

As to `CC(=O)NCC(=O)O` [NAG, N-acetyl glycine], the “stabilization of rhGAA at neutral pH” value on rhGAA [1] is recorded as “remarkable stabilization”. Further, the “effect on the activity of the enzyme (rhGAA)” value at rhGAA [4] is “no effect”.

Regarding `CC(=O)N[C@@H](CO)C(=O)O` [NAS, N-acetyl serine], the “stabilization of rhGAA at neutral pH” value on rhGAA [1] was “remarkable stabilization”. For the same compound, the “effect on the activity of the enzyme (rhGAA)” value at rhGAA [4] was “no effect”.

For `CCCCN1C[C@H](O)[C@@H](O)[C@H](O)[C@H]1CO` [NB-DNJ, N-butyl-deoxynojirimycin, reference compound], at rhGAA [3], the “Tm of rhGAA in the presence of chaperone” value stood at 65.9±0.3 °C.

Consider `N[C@@H](CO)C(=O)O` [Ser, reference compound], for which the “stabilization of rhGAA at neutral pH” value at rhGAA [1] is reported as “did not prevent enzyme inactivation”.

As to `O=C(O[C@@H]1Cc2c(O)cc(O)cc2O[C@@H]1c1cc(O)c(O)c(O)c1)c1cc(O)c(O)c(O)c1` [epigallo chatechingallate, epigallo catechingallate, reference compound], the “enhancement of rhGAA in PD cultured fibroblasts” value at rhGAA in PD fibroblasts is “did not enhance”.

Take `Oc1ccc(C=Cc2cc(O)cc(O)c2)cc1` [resveratrol, reference compound]: the “enhancement of rhGAA in PD cultured fibroblasts” value at rhGAA in PD fibroblasts is “did not enhance”.

For the compound “rhGAA: recombinant human GAA (alglucosidase, Myozyme) from Genzyme, used for enzyme replacement therapy”, the “Tm of rhGAA in the absence of chaperone” value with rhGAA [3] is 50.2±0.1 °C. Also, the “rhGAA residual activity after 4 hours” value in data set [5] (pH 3.0 or 7.0, 37° C., 4 hours) is given as “approximately 50%”. In data set [5] (pH 3.0 or 7.0, 37° C., 16 hours), the “rhGAA residual activity after 16 hours” value is given as “less than 10%”. Also, the “rhGAA stability at pH 5.0” value in data set [5] (pH 5.0, 37° C., up to 24 hours) is given as “stable”.
